Data on 39 compounds can be found in ChEMBL document CHEMBL5528056, “BAY-9835: Discovery of the First Orally Bioavailable ADAMTS7 Inhibitor” (J Med Chem, 2024).

SMILES strings stand for the structures. “And” between values parts separate entries of the source, which are not always exact repeats. Equal values may be shown once. A value given as a limit tells only on which side of the number the result lay.

Data set [1] can be described thus: Selectivity ratio of IC50 for ADAM17 (unknown origin) to IC50 for ADAMTS7 (unknown origin).
The nature of data set [2]: Selectivity ratio of IC50 for ADAMTS12 (unknown origin) to IC50 for ADAMTS7 (unknown origin).
Data set [3] is described as follows: Selectivity ratio of IC50 for ADAMTS4 (unknown origin) to IC50 for ADAMTS7 (unknown origin).
The nature of data set [4]: Selectivity ratio of IC50 for MMP15 (unknown origin) to IC50 for ADAMTS7 (unknown origin).
A short description of data set [5]: Selectivity ratio of IC50 for ADAMTS5 (unknown origin) to IC50 for ADAMTS7 (unknown origin).
Data set [6] is described as follows: Selectivity ratio of IC50 for MMP12 (unknown origin) to IC50 for ADAMTS7 (unknown origin).
Data set [7] concerns the target A disintegrin and metalloproteinase with thrombospondin motifs 7 (Homo sapiens, UniProt Q9UKP4). The experiment in a line: Inhibition of recombinant ADAMTS7 (unknown origin) using HiLyteFluor-488 DELSSMVLELRGLRT-K(QXL520)-E-NH2 as substrate incubated for 120 mins by FRET assay.
Data set [8] in a line: Clearance in iv-dosed Wistar rat measured after 24 hrs by HPLC-MS/MS analysis. The data set is classed as ADME. The following applies: in vivo.
The nature of data set [9]: Selectivity ratio of IC50 for MMP2 (unknown origin) to IC50 for ADAMTS7 (unknown origin).
A further data set has as its target Cytochrome P450 3A4 (Homo sapiens, UniProt P08684). The experiment in a line: Induction of CYP3A4 in human hepatocytes assessed as threshold concentration incubated for 48 hrs by qPCR analysis. In kind it is ADME, cell-based, Hepatocyte. (Quantitative PCR measures a nucleic acid by following its amplification.)
Data set [10] can be described thus: Unbound plasma protein binding in iv-dosed Wistar rat measured after 24 hrs by HPLC-MS/MS analysis. In kind it is ADME, cell-free.
Data set [11] can be described thus: Oral bioavailability iv-dosed Wistar rat measured after 24 hrs by HPLC-MS/MS analysis. In kind it is ADME, organism-based. The following applies: in vivo.
Data set [12] in a line: AUC (infinity) in iv-dosed Wistar rat by HPLC-MS/MS analysis. In kind it is ADME. The following applies: in vivo.

Chain of A disintegrin and metalloproteinase with thrombospondin motifs 7 (Q9UKP4 whole entry): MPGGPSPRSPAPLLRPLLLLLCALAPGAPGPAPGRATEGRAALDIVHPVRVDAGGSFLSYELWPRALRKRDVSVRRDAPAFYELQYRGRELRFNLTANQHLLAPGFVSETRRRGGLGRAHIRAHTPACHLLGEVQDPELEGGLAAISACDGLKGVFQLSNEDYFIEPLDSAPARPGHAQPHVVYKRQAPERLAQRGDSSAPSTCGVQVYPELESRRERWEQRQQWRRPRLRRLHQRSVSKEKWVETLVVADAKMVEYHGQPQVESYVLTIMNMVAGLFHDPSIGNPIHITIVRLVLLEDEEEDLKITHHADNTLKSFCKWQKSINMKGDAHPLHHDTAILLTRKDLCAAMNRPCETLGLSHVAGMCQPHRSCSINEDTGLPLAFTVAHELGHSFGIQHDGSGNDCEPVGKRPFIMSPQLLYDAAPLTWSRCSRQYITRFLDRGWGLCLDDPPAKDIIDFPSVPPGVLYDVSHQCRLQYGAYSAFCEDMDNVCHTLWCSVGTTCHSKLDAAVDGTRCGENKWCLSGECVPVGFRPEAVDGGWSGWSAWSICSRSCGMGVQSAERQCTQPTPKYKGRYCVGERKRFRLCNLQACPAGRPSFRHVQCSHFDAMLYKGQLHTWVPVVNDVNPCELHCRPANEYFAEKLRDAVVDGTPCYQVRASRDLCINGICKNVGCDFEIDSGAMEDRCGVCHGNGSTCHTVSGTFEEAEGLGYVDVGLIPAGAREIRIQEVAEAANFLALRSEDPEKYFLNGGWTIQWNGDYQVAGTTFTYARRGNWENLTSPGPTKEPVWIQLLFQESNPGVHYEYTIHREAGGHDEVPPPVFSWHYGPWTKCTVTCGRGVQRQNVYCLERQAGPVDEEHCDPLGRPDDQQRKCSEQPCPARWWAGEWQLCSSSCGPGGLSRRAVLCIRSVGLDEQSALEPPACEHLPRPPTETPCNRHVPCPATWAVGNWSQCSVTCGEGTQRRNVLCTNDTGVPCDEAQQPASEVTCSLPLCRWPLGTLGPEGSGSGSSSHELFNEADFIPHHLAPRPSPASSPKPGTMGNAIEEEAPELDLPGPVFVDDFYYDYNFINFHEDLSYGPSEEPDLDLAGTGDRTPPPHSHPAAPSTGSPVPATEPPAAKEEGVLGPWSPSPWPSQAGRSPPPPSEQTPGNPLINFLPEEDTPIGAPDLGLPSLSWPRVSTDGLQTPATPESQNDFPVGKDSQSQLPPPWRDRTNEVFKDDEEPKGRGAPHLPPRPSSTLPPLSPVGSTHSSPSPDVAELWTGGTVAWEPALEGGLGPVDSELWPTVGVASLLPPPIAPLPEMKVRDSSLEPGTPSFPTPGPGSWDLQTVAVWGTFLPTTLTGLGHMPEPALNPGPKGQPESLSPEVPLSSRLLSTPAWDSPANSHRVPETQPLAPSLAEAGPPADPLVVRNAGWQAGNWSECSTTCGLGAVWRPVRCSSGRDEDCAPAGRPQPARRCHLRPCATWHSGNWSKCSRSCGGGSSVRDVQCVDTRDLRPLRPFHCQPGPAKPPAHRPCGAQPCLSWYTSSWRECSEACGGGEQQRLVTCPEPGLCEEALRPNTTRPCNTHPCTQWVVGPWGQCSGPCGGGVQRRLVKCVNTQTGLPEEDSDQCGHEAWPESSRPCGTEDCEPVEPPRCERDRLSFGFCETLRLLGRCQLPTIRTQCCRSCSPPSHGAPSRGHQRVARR
Chain of Cytochrome P450 3A4 (P08684 whole entry): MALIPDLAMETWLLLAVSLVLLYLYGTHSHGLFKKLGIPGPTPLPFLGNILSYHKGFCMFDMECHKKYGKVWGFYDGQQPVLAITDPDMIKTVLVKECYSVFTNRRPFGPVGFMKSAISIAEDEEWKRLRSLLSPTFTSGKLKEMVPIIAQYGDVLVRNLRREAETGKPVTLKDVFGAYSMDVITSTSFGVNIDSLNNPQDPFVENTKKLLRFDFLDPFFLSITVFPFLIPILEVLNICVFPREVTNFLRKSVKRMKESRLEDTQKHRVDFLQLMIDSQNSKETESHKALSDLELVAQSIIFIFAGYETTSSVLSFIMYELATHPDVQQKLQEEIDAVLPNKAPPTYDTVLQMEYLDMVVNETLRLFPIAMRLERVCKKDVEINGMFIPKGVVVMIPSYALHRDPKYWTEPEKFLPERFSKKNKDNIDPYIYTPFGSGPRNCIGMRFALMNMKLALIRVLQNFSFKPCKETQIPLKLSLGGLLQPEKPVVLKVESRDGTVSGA

Take `O=C1NC(=O)[C@](CNC(=O)c2cnn(-c3ccc(F)cc3)n2)(C2CC2)N1`: the Ratio IC50 in data set [1] is 863; in data set [2], 26; in data set [3], above 20800; in [4], 41700; in data set [5], 12700.

In the case of `Cn1nc(-c2ccccc2)cc1C1(CNC(=O)c2ccc(F)c(F)c2-c2ccc(C(F)(F)F)cc2)NC(=O)NC1=O` (centres undefined), the Ratio IC50 in data set [1] was 863; in data set [2], 26; in [6], 1450; in data set [3], above 20800; in [4], 41700; in data set [5] it was 12700.

Regarding `Cc1ccc(-c2ccc(C(=O)NC[C@@]3(C4CC4)NC(=O)NC3=O)cc2)cc1`, the Ratio IC50 in data set [6] was 4.7 10^-4No_unit. In data set [7], the IC50 worked out at 580 nM.

In [8], `Cn1nccc1[C@]1(CNC(=O)c2cccc(F)c2-c2ccc(C(F)(F)F)cc2)NC(=O)NC1=O` had a CL of 12 mL/min/kg. In [7], the IC50 was 5 nM.

Take `O=C1NC(=O)[C@](CNC(=O)c2cnn(-c3cccc(F)c3)n2)(C2CC2)N1`: the Ratio IC50 in data set [6] was determined as 1.1.

For `O=C1NC(=O)[C@](CNC(=O)c2cnn(Cc3nccs3)n2)(C2CC2)N1`, the Ratio IC50 in data set [6] is 4.6. In addition, the IC50 in data set [7] was found to be 910 nM.

`Cn1nccc1[C@]1(CNC(=O)c2ccc(Cl)c(F)c2-c2ccc(C(F)(F)F)cc2)NC(=O)NC1=O`: the IC50 in data set [7] stood at 3 nM.

For `Cc1nc(Cn2ncc(C(=O)NC[C@@]3(C4CC4)NC(=O)NC3=O)n2)cs1`, the Ratio IC50 in [6] was found to be 33.5. In addition, in data set [7], the IC50 came to 930 nM.

In the case of `Cc1scnc1C1(CNC(=O)c2ccccc2-c2ccc(C(F)(F)F)cc2)NC(=O)NC1=O` (centres undefined), the CL in [8] stood at 20 mL/min/kg. For the same compound, the Ratio IC50 in [6] amounted to 188. For the same compound, the IC50 in [7] came out at 6 nM.

As to `CCn1nccc1C1(CNC(=O)c2ccccc2-c2ccc(C(F)(F)F)cc2)NC(=O)NC1=O` (centres undefined), the CL in data set [8] turned out to be 17 mL/min/kg. Besides, in data set [6], the Ratio IC50 is 96.

As for `O=C1NC(=O)[C@](CNC(=O)c2cnn(-c3cccc(Cl)c3)n2)(C2CC2)N1`, in data set [6], the Ratio IC50 stood at 0.1.

Regarding `Cn1nccc1[C@]1(CNC(=O)c2ccc(F)cc2-c2ccc(C(F)(F)F)cc2)NC(=O)NC1=O`, the CL in [8] stood at 15 mL/min/kg. The IC50 in [7] turned out to be 19 nM.

`Cc1ccc(-c2cccc(C(=O)NC[C@@]3(C4CC4)NC(=O)NC3=O)c2)cc1`: the IC50 in [7] came to 2300 nM.

Turning to `Cn1nccc1[C@]1(CNC(=O)c2cccc(Cl)c2-c2ccc(C(F)(F)F)cc2)NC(=O)NC1=O`, the IC50 in data set [7] amounted to 16 nM.

For `Cc1nc(C2(CNC(=O)c3ccccc3-c3ccc(C(F)(F)F)cc3)NC(=O)NC2=O)c(C)s1` (centres undefined), the Ratio IC50 in data set [6] stood at 36. Further, the IC50 in [7] is 15 nM.

As to `Cc1cn(-c2ccccc2)nc1C1(CNC(=O)c2ccc(F)c(F)c2-c2ccc(C(F)(F)F)cc2)NC(=O)NC1=O` (centres undefined), the Ratio IC50 in [2] worked out at 14. Further, the IC50 in data set [7] came out at 8 nM.

On to `O=C1NC(=O)[C@](CNC(=O)c2cnn(-c3ccc(Cl)cc3)n2)(C2CC2)N1`, for which the Ratio IC50 in data set [6] stood at 0.8.

Take `Cn1nccc1[C@]1(CNC(=O)c2cc(F)ccc2-c2ccc(C(F)(F)F)cc2)NC(=O)NC1=O`: the CL in [8] came to 10 mL/min/kg. In addition, the IC50 in [7] came to 19 nM.

Consider `O=C1NC(=O)C(CNC(=O)c2ccccc2-c2ccc(C(F)(F)F)cc2)(c2ccnn2CC(F)(F)F)N1` (centres undefined), for which the Ratio IC50 in data set [6] was determined as 29.

Turning to `O=C1NC(=O)[C@](CNC(=O)c2cnn(Cc3ccc(Cl)cc3)c2)(C2CC2)N1`, the Ratio IC50 in data set [6] was determined as 7.4. Besides, in data set [7], the IC50 worked out at 280 nM.

On to `O=C1NC(=O)[C@](CNC(=O)c2cnn(-c3ccc(F)cn3)n2)(C2CC2)N1`, for which, in data set [6], the Ratio IC50 turned out to be 0.6. In data set [7], the IC50 worked out at 115 nM.

The compound `O=C1NC(=O)[C@](CNC(=O)c2ccccc2-c2ccc(C(F)(F)F)cc2)(C2CC2)N1` came in with a CL in data set [8] of 1.7 mL/min/kg. Also, in data set [6], the Ratio IC50 turned out to be 11.

Take `Cc1ccc(-c2ccccc2C(=O)NC[C@@]2(C3CC3)NC(=O)NC2=O)cc1`: the Ratio IC50 in [1] was 826; in data set [6], 12 and 12.4; in data set [3], 115; in data set [4], 872; in [5], 213; in data set [9], 759.

Regarding `Cn1nccc1[C@]1(CNC(=O)c2ccccc2-c2ccc(C(F)(F)F)cc2)NC(=O)NC1=O`, the Ratio IC50 in data set [1] is 303; in data set [2], 1; in data set [3], 1440; in data set [4], 6390; in data set [5], 3220; in [9], 8320. Also, the Activity at Cytochrome P450 3A4 stood at 16.6 µM.

In turn, `O=C1NC(=O)[C@](CNC(=O)c2cnn(-c3ccccc3)n2)(C2CC2)N1` showed a Fu in data set [10] of 15%. Besides, in [8], the CL was found to be 12 mL/min/kg. The Ratio IC50 in data set [2] turned out to be 0.2. For the same compound, in data set [11], the F worked out at 74%. The IC50 in data set [7] is 61 nM.

`Cn1nccc1[C@]1(CNC(=O)c2c(F)cccc2-c2ccc(C(F)(F)F)cc2)NC(=O)NC1=O`: in [7], the IC50 is 79 nM.

As to `O=C1NC(=O)C(CNC(=O)c2ccccc2-c2ccc(C(F)(F)F)cc2)(c2ncsc2C(F)(F)F)N1` (centres undefined), the Ratio IC50 in data set [6] worked out at 31.

Consider `Cc1sc(-c2cccnc2)nc1C1(CNC(=O)c2ccc(F)c(F)c2-c2ccc(C(F)(F)F)cc2)NC(=O)NC1=O` (centres undefined), for which the Ratio IC50 in data set [2] is 14. Moreover, the IC50 in data set [7] turned out to be 9 nM.

`O=C1NC(=O)[C@](CNC(=O)c2cnn(-c3ccccc3)c2)(C2CC2)N1`: the Ratio IC50 in data set [6] was determined as 0.03.

Consider `Cn1ccnc1C1(CNC(=O)c2ccccc2-c2ccc(C(F)(F)F)cc2)NC(=O)NC1=O` (single isomer, unassigned), for which the AUC in [12] turned out to be 0.6 kg·h/L. For the same compound, the Ratio IC50 in data set [6] was 450. In addition, the half-maximal inhibitory concentration (IC50) in data set [7] was determined as 3 nM. Also, at Cytochrome P450 3A4, the Activity was determined as 0.6 µM.

Regarding `Cc1ccc(-n2ncc(C(=O)NC[C@@]3(C4CC4)NC(=O)NC3=O)n2)cc1`, the Ratio IC50 in [6] was 0.1.

Take `COc1cccc(C(=O)NC[C@@]2(c3ccnn3C)NC(=O)NC2=O)c1-c1ccc(C(F)(F)F)cc1`: the IC50 in data set [7] turned out to be 29 nM.

Compound `O=C1NC(=O)C(CNC(=O)c2ccccc2-c2ccc(C(F)(F)F)cc2)(c2cscn2)N1` (centres undefined) gave a CL in data set [8] of 23.3 mL/min/kg. In addition, the Ratio IC50 in [6] came out at 67.

Regarding `O=C1NC(=O)[C@](CNC(=O)c2cnn(-c3ccccc3F)n2)(C2CC2)N1`, the Ratio IC50 in data set [6] came out at 0.4.

On to `Cc1c(C2(CNC(=O)c3ccccc3-c3ccc(C(F)(F)F)cc3)NC(=O)NC2=O)cnn1C` (centres undefined), for which the Ratio IC50 in data set [6] stood at 18.

As for `Cc1sc(-c2ccccc2)nc1C1(CNC(=O)c2ccc(F)c(F)c2-c2ccc(C(F)(F)F)cc2)NC(=O)NC1=O` (centres undefined), in [2], the Ratio IC50 was found to be 10. Also, the IC50 in data set [7] was found to be 47 nM.

Consider `Cn1nccc1[C@]1(CNC(=O)c2ccc(C(F)(F)F)c(F)c2-c2ccc(C(F)(F)F)cc2)NC(=O)NC1=O`, for which the IC50 in data set [7] is 10 nM.

As to `Cn1cc(Cn2ncc(C(=O)NC[C@@]3(C4CC4)NC(=O)NC3=O)n2)cn1`, in data set [6], the Ratio IC50 is 29.4. Moreover, the IC50 in data set [7] was found to be 850 nM.

As to `O=C1NC(=O)[C@](CNC(=O)c2cnn(-c3cnsc3)n2)(C2CC2)N1`, in data set [6], the Ratio IC50 was 0.2.

The term IC50 denotes the point on the concentration scale where inhibition reaches its midpoint.
